# In patent publication US10414811B2, “Protease-resistant lipidated GLP-1 analogs” (MEDIMMUNE LIMITED, priority 2015, dated 2019):
# Read-outs that look alike come from different tables or passages of the source. Numbered stars: 1 amine (or outer) side, 2 acyl side, 3 side chain; on linkers, the order of the positions; unused ones are H or OH. Square brackets hold non-standard residues; d marks the D form. Side chains are listed from the residue outwards. Peptide text beside a SMILES is read from it. * marks the point of attachment. C18 diacid = O=C(O)CCCCCCCCCCCCCCCCC(=O)*; γGlu = O=C(O)[C@H](CCC(=O)[*:2])N[*:1]; αMeF = C[C@](N)(Cc1ccccc1)C(=O)O; αMeK = C[C@](N)(CCCCN)C(=O)O; Lauroyl = CCCCCCCCCCCC(=O)*; αMeS = C[C@](N)(CO)C(=O)O; AEEA = NCCOCCOCC(=O)O; Aib = CC(C)(N)C(=O)O
# How the values were obtained:
# Type in all cases: cell-based
# [1] = target: T1, human glucagon receptor (GCGR) (Homo sapiens, UniProt P47871); assay: cAMP assay, human GCGR cells
# T1 construct: expressed in transfected cells
# T1 sequence (P47871 26-477): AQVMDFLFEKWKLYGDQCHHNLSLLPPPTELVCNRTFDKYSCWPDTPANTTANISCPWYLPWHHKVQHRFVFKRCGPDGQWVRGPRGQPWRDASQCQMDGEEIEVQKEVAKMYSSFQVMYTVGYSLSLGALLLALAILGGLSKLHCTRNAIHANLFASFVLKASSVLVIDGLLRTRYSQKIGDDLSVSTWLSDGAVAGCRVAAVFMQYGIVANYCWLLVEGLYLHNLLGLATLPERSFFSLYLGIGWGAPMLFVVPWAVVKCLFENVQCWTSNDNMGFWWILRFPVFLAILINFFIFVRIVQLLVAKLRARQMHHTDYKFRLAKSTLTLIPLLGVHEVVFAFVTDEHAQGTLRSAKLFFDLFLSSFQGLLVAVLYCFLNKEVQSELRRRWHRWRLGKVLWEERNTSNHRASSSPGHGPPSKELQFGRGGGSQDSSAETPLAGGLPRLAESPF
# Outline: (§1)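 Peptide-stimulated cAMP measured by two-step HTRF after a 30 min room-temperature incubation with receptor-expressing cells (hGLP-1R, hGIPR at 1×10^5 cells/ml; hGCGR at 2×10^5 cells/ml). Duplicate dilutions; EC50 from 4-parameter logistic fit of % Delta F.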
# [2] = target: T2, human GLP-1 receptor (GLP-1R) (Homo sapiens, UniProt P43220); assay: cAMP assay, human GLP-1R cells
# T2 construct: expressed in transfected cells
# T2 sequence (P43220 24-463): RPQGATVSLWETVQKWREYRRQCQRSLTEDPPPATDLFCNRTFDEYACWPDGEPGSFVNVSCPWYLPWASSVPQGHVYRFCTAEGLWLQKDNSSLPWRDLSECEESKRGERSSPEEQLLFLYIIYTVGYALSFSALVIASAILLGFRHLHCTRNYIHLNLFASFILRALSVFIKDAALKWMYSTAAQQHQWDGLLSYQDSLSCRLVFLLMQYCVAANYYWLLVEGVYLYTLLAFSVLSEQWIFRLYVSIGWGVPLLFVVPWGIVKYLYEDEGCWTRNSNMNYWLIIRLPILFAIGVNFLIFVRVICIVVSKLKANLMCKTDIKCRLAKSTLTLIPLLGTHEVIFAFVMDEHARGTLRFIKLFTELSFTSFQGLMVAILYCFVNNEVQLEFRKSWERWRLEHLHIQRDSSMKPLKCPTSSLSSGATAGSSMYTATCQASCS
# Description: Sample dilutions are made in duplicate.
# A frozen cryo-vial of cells expressing the receptor of interest is thawed rapidly in a water-bath, transferred to pre-warmed assay buffer and spun at 240×g for 5 minutes. Cells are re-suspended in assay buffer at a batch-dependent optimized concentration (e.g. hGCGR cells at 2×10^5 cells/ml, hGLP-1R and hGIPR cells at 1×10^5 cells/ml).
# To this, 5 μL cell suspension is added and the plates incubated at room temperature for 30 minutes.
# cAMP levels are measured using a commercially available cAMP dynamic 2 HTRF kit (Cisbio, Cat #62AM4PEJ), following the two step protocol as per manufacturer's recommendations. In brief; anti-cAMP cryptate (donor fluorophore) and cAMP-d2 (acceptor fluorophore) are made up separately by diluting each 1/20 in conjugate & lysis buffer provided in the kit. 5 μL anti-cAMP cryptate is added to wells of the assay plate, and 5 μL cAMP-d2 is added to wells except non-specific binding (NSB) wells, to which conjugate and lysis buffer are added. […] EC50 values of the synthetic peptides determined in cAMP assays are then determined.
# Data is transformed to % Delta F as described in the manufacturer's guidelines and analyzed by 4-parameter logistic fit to determine EC50 values. […] To compare the balance of activities at the GLP-1R and GCGR between different peptides and across different conditions, these can be correlated, where the EC50's are related to those of comparator peptides.
# [3] = target: T3, human glucose-dependent insulinotropic peptide receptor (GIPR) (Homo sapiens, UniProt P48546); assay: cAMP assay, human GIPR cells
# T3 construct: expressed in transfected cells
# T3 sequence (P48546 22-466): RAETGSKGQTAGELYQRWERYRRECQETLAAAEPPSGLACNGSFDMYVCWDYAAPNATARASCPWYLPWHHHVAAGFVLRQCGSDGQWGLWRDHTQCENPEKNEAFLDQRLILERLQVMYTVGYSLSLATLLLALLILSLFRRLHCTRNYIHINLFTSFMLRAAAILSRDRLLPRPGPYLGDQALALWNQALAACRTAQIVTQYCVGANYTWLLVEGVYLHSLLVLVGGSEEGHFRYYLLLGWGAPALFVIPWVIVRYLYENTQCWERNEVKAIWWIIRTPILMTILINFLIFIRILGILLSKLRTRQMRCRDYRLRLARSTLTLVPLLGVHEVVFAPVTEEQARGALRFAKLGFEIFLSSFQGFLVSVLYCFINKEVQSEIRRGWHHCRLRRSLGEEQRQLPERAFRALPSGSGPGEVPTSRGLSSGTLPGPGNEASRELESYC
# Outline: as §1
# [4] = cAMP assay, first determination (n1), read-out: Primary assay EC50 Gluc-R (n1)
# [5] = cAMP assay, second determination (n2), read-out: Primary assay EC50 Gluc-R (n2)
# [6] = cAMP assay, first determination (n1), read-out: Primary assay EC50 GLP-1R n1
# [7] = cAMP assay, second determination (n2), read-out: Primary assay EC50 GLP-1R n2
# [8] = mean of n1 and n2, read-out: Mean pM GLP-1R
# [9] = cAMP assay, first determination (n1), read-out: Primary assay EC50 GIP-R (n1)
# [10] = cAMP assay, second determination (n2), read-out: Primary assay EC50 GIP-R (n2)
SMILES,"EC50 ([1]; tris-lipidated peptides, second replicate, read-out: Primary assay EC50 Gluc-R (n2))","EC50 ([2]; tris-lipidated peptides, mean of n1 and n2, read-out: Primary assay EC50 Mean pM GLP-1R)","EC50 ([2]; tris-lipidated peptides, replicate n1, read-out: Primary assay EC50 GLP-1R n1)","EC50 ([2]; tris-lipidated peptides, replicate n2, read-out: Primary assay EC50 GLP-1R n2)","EC50 ([3]; tris-lipidated peptides, second replicate, read-out: Primary assay EC50 GIP-R (n2))","EC50 [1, 4]","EC50 [1, 5]","EC50 [2, 6]","EC50 [2, 7]","EC50 [2, 8]","EC50 [3, 9]","EC50 [3, 10]"
CCCCCCCCCCCC(=O)N[C@@H](CCC(=O)NCCOCCOCC(=O)NCCOCCOCC(=O)NCCCC[C@H](NC(=O)[C@H](CCC(=O)O)NC(=O)CNC(=O)[C@H](CCC(=O)O)NC(=O)[C@H](CC(C)C)NC(=O)[C@H](Cc1ccc(O)cc1)NC(=O)[C@H](CO)NC(=O)[C@H](CO)NC(=O)[C@H](CCCCNC(=O)COCCOCCNC(=O)COCCOCCNC(=O)CC[C@H](NC(=O)CCCCCCCCCCC)C(=O)O)NC(=O)[C@H](CC(=O)O)NC(=O)[C@H](CO)NC(=O)[C@@H](NC(=O)[C@](C)(Cc1ccccc1)NC(=O)[C@H](CO)NC(=O)CNC(=O)[C@H](CCC(=O)O)NC(=O)C(C)(C)NC(=O)[C@@H](N)Cc1c[nH]cn1)[C@@H](C)O)C(=O)N[C@@H](C)C(=O)N[C@@](C)(CCCCN)C(=O)N[C@@H](CCC(=O)O)C(=O)N[C@@H](Cc1ccccc1)C(=O)N[C@H](C(=O)N[C@@H](CCCCNC(=O)COCCOCCNC(=O)COCCOCCNC(=O)CC[C@H](NC(=O)CCCCCCCCCCC)C(=O)O)C(=O)N[C@@H](Cc1ccccc1)C(=O)N[C@H](C(=O)N[C@H](C(=O)N[C@@H](CCC(=O)O)C(=O)NCC(=O)NCC(N)=O)C(C)C)C(C)C)[C@@H](C)CC)C(=O)O [compound 441] (H-H[Aib]EGS[αMeF]TSDK([AEEA-AEEA-γGlu-Lauroyl])SSYLEGEK([AEEA-AEEA-γGlu-Lauroyl])A[αMeK]EFIK([AEEA-AEEA-γGlu-Lauroyl])FVVEGG-NH2),19.5 nM,176 pM,110 pM,241 pM,19.5 nM,–,–,–,–,–,–,–
CCCCCCCCCCCC(=O)N[C@@H](CCC(=O)NCCCC[C@H](NC(=O)[C@H](C)NC(=O)[C@H](C)NC(=O)[C@H](CCC(=O)O)NC(=O)CNC(=O)[C@H](CCC(=O)O)NC(=O)[C@H](CC(C)C)NC(=O)[C@](C)(Cc1ccccc1)NC(=O)[C@H](CO)NC(=O)[C@](C)(CO)NC(=O)[C@@H](NC(=O)[C@H](CC(=O)O)NC(=O)[C@H](CO)NC(=O)[C@@H](NC(=O)[C@](C)(Cc1ccccc1)NC(=O)[C@H](CO)NC(=O)CNC(=O)[C@H](CCC(=O)O)NC(=O)C(C)(C)NC(=O)[C@@H](N)Cc1c[nH]cn1)[C@@H](C)O)C(C)C)C(=O)N[C@@H](CCC(=O)O)C(=O)N[C@@](C)(Cc1ccccc1)C(=O)N[C@H](C(=O)N[C@@H](C)C(=O)N[C@@](C)(Cc1ccccc1)C(=O)N[C@H](C(=O)N[C@H](C(=O)N[C@@](C)(CCCCN)C(=O)NCC(=O)NCC(N)=O)C(C)C)C(C)C)[C@@H](C)CC)C(=O)O [compound 128],–,–,–,–,–,≥ 28 nM,≥ 28 nM,15 pM,21 pM,18.2 pM,≥ 28 nM,≥ 28 nM
CCCCCCCCCCCCCCCCCC(=O)NCCCCCC(=O)NCCCC[C@H](NC(=O)[C@H](C)NC(=O)[C@H](C)NC(=O)[C@H](CCC(=O)O)NC(=O)CNC(=O)[C@H](CCC(=O)O)NC(=O)[C@H](CC(C)C)NC(=O)[C@](C)(Cc1ccccc1)NC(=O)[C@H](CO)NC(=O)[C@](C)(CO)NC(=O)[C@@H](NC(=O)[C@H](CC(=O)O)NC(=O)[C@H](CO)NC(=O)[C@@H](NC(=O)[C@](C)(Cc1ccccc1)NC(=O)[C@H](CO)NC(=O)CNC(=O)[C@H](CCC(=O)O)NC(=O)C(C)(C)NC(=O)[C@@H](N)Cc1c[nH]cn1)[C@@H](C)O)C(C)C)C(=O)N[C@@H](CCC(=O)O)C(=O)N[C@@](C)(Cc1ccccc1)C(=O)N[C@H](C(=O)N[C@@H](C)C(=O)N[C@@](C)(Cc1ccccc1)C(=O)N[C@H](C(=O)N[C@H](C(=O)N[C@@](C)(CCCCN)C(=O)NCC(=O)NCC(N)=O)C(C)C)C(C)C)[C@@H](C)CC [compound 149],–,–,–,–,–,≥ 28 nM,≥ 28 nM,81 pM,51 pM,66.2 pM,≥ 28 nM,≥ 28 nM

# More lines, now with the values ahead:
"EC50 ([1]; tris-lipidated peptides, second replicate, read-out: Primary assay EC50 Gluc-R (n2))","EC50 ([2]; tris-lipidated peptides, mean of n1 and n2, read-out: Primary assay EC50 Mean pM GLP-1R)","EC50 ([2]; tris-lipidated peptides, replicate n1, read-out: Primary assay EC50 GLP-1R n1)","EC50 ([2]; tris-lipidated peptides, replicate n2, read-out: Primary assay EC50 GLP-1R n2)","EC50 ([3]; tris-lipidated peptides, second replicate, read-out: Primary assay EC50 GIP-R (n2))","EC50 [1, 4]","EC50 [1, 5]","EC50 [2, 6]","EC50 [2, 7]","EC50 [2, 8]","EC50 [3, 9]","EC50 [3, 10]",SMILES
–,–,–,–,–,≥ 25 nM,≥ 25.4 nM,550 pM,458 pM,503 pM,≥ 25 nM,≥ 25.4 nM,CC[C@H](C)[C@H](NC(=O)[C@](C)(Cc1ccccc1)NC(=O)[C@H](CCC(=O)O)NC(=O)[C@](C)(CCCCN)NC(=O)[C@H](C)NC(=O)[C@H](C)NC(=O)[C@H](CCC(=O)O)NC(=O)CNC(=O)[C@H](CCCCNC(=O)COCCOCCNC(=O)COCCOCCNC(=O)CC[C@H](NC(=O)CCCCCCCCCCCCCCCCC(=O)O)C(=O)O)NC(=O)[C@H](CC(C)C)NC(=O)[C@](C)(Cc1ccccc1)NC(=O)[C@H](CO)NC(=O)[C@](C)(CO)NC(=O)[C@@H](NC(=O)[C@H](CC(=O)O)NC(=O)[C@H](CO)NC(=O)[C@@H](NC(=O)[C@](C)(Cc1ccccc1)NC(=O)[C@H](CO)NC(=O)CNC(=O)[C@H](CCC(=O)O)NC(=O)C(C)(C)NC(=O)[C@@H](N)Cc1c[nH]cn1)[C@@H](C)O)C(C)C)C(=O)N[C@@H](C)C(=O)N[C@@](C)(Cc1ccccc1)C(=O)N[C@H](C(=O)N[C@H](C(=O)N[C@@](C)(CCCCN)C(=O)NCC(=O)NCC(N)=O)C(C)C)C(C)C [compound 114] (H-H[Aib]EGS[αMeF]TSDV[αMeS]S[αMeF]LK([AEEA-AEEA-γGlu-C18 diacid])GEAA[αMeK]E[αMeF]IA[αMeF]VV[αMeK]GG-NH2; N-terminus assumed)
–,–,–,–,–,≥ 26 nM,≥ 26 nM,64 pM,31 pM,47.4 pM,≥ 26 nM,≥ 26 nM,CCCCCCCCCCCCCCCCCC(=O)NCCCCCC(=O)NCCCCCC(=O)NCCCCCC(=O)NCCCC[C@H](NC(=O)[C@@H](NC(=O)[C@@H](NC(=O)[C@](C)(Cc1ccccc1)NC(=O)[C@H](C)NC(=O)[C@@H](NC(=O)[C@](C)(Cc1ccccc1)NC(=O)[C@H](CCC(=O)O)NC(=O)[C@](C)(CCCCN)NC(=O)[C@H](C)NC(=O)[C@H](C)NC(=O)[C@H](CCC(=O)O)NC(=O)CNC(=O)[C@H](CCC(=O)O)NC(=O)[C@H](CC(C)C)NC(=O)[C@](C)(Cc1ccccc1)NC(=O)[C@H](CO)NC(=O)[C@](C)(CO)NC(=O)[C@@H](NC(=O)[C@H](CC(=O)O)NC(=O)[C@H](CO)NC(=O)[C@@H](NC(=O)[C@](C)(Cc1ccccc1)NC(=O)[C@H](CO)NC(=O)CNC(=O)[C@H](CCC(=O)O)NC(=O)C(C)(C)NC(=O)[C@@H](N)Cc1c[nH]cn1)[C@@H](C)O)C(C)C)[C@@H](C)CC)C(C)C)C(C)C)C(=O)NCC(=O)NCC(N)=O [compound 187]
–,–,–,–,–,≥ 27 nM,≥ 27 nM,160 pM,62 pM,112 pM,≥ 27 nM,≥ 27 nM,CC[C@H](C)[C@H](NC(=O)[C@](C)(Cc1ccccc1)NC(=O)[C@H](CCC(=O)O)NC(=O)[C@H](CCCCNC(=O)COCCOCCNC(=O)CCCCCCCCCCCCCCCCC(=O)O)NC(=O)[C@H](C)NC(=O)[C@H](C)NC(=O)[C@H](CCC(=O)O)NC(=O)CNC(=O)[C@H](CCC(=O)O)NC(=O)[C@H](CC(C)C)NC(=O)[C@](C)(Cc1ccccc1)NC(=O)[C@H](CO)NC(=O)[C@](C)(CO)NC(=O)[C@@H](NC(=O)[C@H](CC(=O)O)NC(=O)[C@H](CO)NC(=O)[C@@H](NC(=O)[C@](C)(Cc1ccccc1)NC(=O)[C@H](CO)NC(=O)CNC(=O)[C@H](CCC(=O)O)NC(=O)C(C)(C)NC(=O)[C@@H](N)Cc1c[nH]cn1)[C@@H](C)O)C(C)C)C(=O)N[C@@H](C)C(=O)N[C@@](C)(Cc1ccccc1)C(=O)N[C@H](C(=O)N[C@H](C(=O)N[C@@](C)(CCCCN)C(=O)NCC(=O)NCC(N)=O)C(C)C)C(C)C [compound 161]
